# Measured values taken from patent US20250230154A1, “COMPOUND HAVING SHP2 PROTEIN DEGRADING ACTIVITY, AND MEDICAL USES THEREOF” (UBIX THERAPEUTICS, INC., priority 2021, published 2025).
# Molecular target: T1, SHP2 protein (Homo sapiens, UniProt Q06124)
# T1 sequence (Q06124 1-593): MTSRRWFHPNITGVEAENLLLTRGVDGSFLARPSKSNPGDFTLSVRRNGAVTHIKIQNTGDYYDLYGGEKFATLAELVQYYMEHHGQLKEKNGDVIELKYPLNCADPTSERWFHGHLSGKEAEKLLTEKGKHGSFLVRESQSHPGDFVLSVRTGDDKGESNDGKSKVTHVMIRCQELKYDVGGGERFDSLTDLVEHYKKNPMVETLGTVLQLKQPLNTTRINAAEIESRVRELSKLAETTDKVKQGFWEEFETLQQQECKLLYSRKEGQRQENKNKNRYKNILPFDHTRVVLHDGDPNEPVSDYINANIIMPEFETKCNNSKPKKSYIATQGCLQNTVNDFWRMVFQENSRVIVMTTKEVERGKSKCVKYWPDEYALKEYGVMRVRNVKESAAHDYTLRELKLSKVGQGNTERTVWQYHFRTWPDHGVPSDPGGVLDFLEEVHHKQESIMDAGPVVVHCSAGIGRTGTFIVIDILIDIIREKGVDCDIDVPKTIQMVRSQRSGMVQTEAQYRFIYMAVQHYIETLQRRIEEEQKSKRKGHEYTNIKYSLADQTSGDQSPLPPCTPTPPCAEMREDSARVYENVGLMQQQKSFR
# Assay: Measurement of SHP2 protein degradation in MV-4-11 cells (western blotting)
# Format: cell-based
# Design: endogenous in cells; host or cells: MV-4-11
# Conditions: MV-4-11 cells, 24 hours
# Method in brief: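 SHP2 protein levels were assessed by western blotting in MV-4-11 cells after a 24 hour compound treatment. Lysates were sonicated, centrifuged, normalized by BCA assay at 562 nm, run on Bis-tris 4-12% gels, transferred to NC membrane, probed with anti-SHPTP2 (70 kDa) and anti-GAPDH (37 kDa) antibodies, and detected on LI-COR Odyssey.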
SHP2 degradation (%) 10 nM,SHP2 degradation (%) 100 nM,SHP2 degradation (%) 1000 nM,SMILES
83.1%,98.2%,–,"Cc1ncsc1-c1ccc(CNC(=O)[C@@H]2C[C@@H](O)CN2C(=O)[C@@H](NC(=O)C2CC2)C(C)(C)C)c(OCCCN2CCN(CC(=O)Nc3cccc(Sc4cnc(N5CCC(C)(CN)CC5)cn4)c3Cl)C(=O)C2)c1 [Example 80, (2S,4R)—N-(2-(3-(4-(2-((3-((5-(4-(aminomethyl)-4-methylpiperidin-1-yl)pyrazin-2-yl)thio)-2-chlorophenyl)amino)-2-oxoethyl)-3-oxopiperazin-1-yl)propoxy)-4-(4-methylthiazol-5-yl)benzyl)-1-((S)-2-(cyclopropanecarboxamido)-3,3-dimethylbutanoyl)-4-hydroxypyrrolidine-2-carboxamide]"
22.7%,93.2%,–,"Cc1ncsc1-c1ccc(CNC(=O)[C@@H]2C[C@@H](O)CN2C(=O)[C@@H](NC(=O)C2(F)CC2)C(C)(C)C)c(OCCN2CCN(c3ccc(C(=O)Nc4cccc(Sc5cnc(N6CCC(C)(CN)CC6)cn5)c4Cl)nc3)CC2)c1 [Example 81, N-(3-((5-(4-(aminomethyl)-4-methylpiperidin-1-yl)pyrazin-2-yl)thio)-2-chlorophenyl)-5-(4-(2-(2-(((2S,4R)-1-((S)-2-(1-fluorocyclopropane-1-carboxamido)-3,3-dimethylbutanoyl)-4-hydroxypyrrolidine-2-carboxamido)methyl)-5-(4-methylthiazol-5-yl)phenoxy)ethyl)piperazin-1-yl)picolinamide]"
16.2%,96.2%,–,"Cc1ncsc1-c1ccc(CNC(=O)[C@@H]2C[C@@H](O)CN2C(=O)[C@@H](NC(=O)C2(F)CC2)C(C)(C)C)c(OCCN2CCN(c3ccc(C(=O)Nc4cccc(Sc5cnc(N6CCC(C)(CN)CC6)cn5)c4Cl)cn3)CC2)c1 [Example 82, N-(3-((5-(4-(aminomethyl)-4-methylpiperidin-1-yl)pyrazin-2-yl)thio)-2-chlorophenyl)-6-(4-(2-(2-(((2S,4R)-1-((S)-2-(1-fluorocyclopropane-1-carboxamido)-3,3-dimethylbutanoyl)-4-hydroxypyrrolidine-2-carboxamido)methyl)-5-(4-methylthiazol-5-yl)phenoxy)ethyl)piperazin-1-yl)nicotinamide]"
79.9%,97.5%,–,"Cc1ncsc1-c1ccc(CNC(=O)[C@@H]2C[C@@H](O)CN2C(=O)[C@@H](NC(=O)C2(F)CC2)C(C)(C)C)c(OCCN2CCN(c3cnc(C(=O)Nc4cccc(Sc5cnc(N6CCC(C)(CN)CC6)cn5)c4Cl)nc3)CC2)c1 [Example 83, N-(3-((5-(4-(aminomethyl)-4-methylpiperidin-1-yl)pyrazin-2-yl)thio)-2-chlorophenyl)-5-(4-(2-(2-(((2S,4R)-1-((S)-2-(1-fluorocyclopropane-1-carboxamido)-3,3-dimethylbutanoyl)-4-hydroxypyrrolidine-2-carboxamido)methyl)-5-(4-methylthiazol-5-yl)phenoxy)ethyl)piperazin-1-yl)pyrimidine-2-carboxamide]"
48.7%,97.1%,–,"Cc1ncsc1-c1ccc(CNC(=O)[C@@H]2C[C@@H](O)CN2C(=O)[C@@H](NC(=O)C2(F)CC2)C(C)(C)C)c(OCCN2CCN(c3ncc(C(=O)Nc4cccc(Sc5cnc(N6CCC(C)(CN)CC6)cn5)c4Cl)cn3)CC2)c1 [Example 84, N-(3-((5-(4-(aminomethyl)-4-methylpiperidin-1-yl)pyrazin-2-yl)thio)-2-chlorophenyl)-2-(4-(2-(2-(((2S,4R)-1-((S)-2-(1-fluorocyclopropane-1-carboxamido)-3,3-dimethylbutanoyl)-4-hydroxypyrrolidine-2-carboxamido)methyl)-5-(4-methylthiazol-5-yl)phenoxy)ethyl)piperazin-1-yl)pyrimidine-5-carboxamide]"
73%,97.5%,–,"Cc1ncsc1-c1ccc(CNC(=O)[C@@H]2C[C@@H](O)CN2C(=O)[C@@H](NC(=O)C2(F)CC2)C(C)(C)C)c(OCCN2CCN(c3ccc(C(=O)Nc4cccc(Sc5cnc(N6CCC(C)(CN)CC6)cn5)c4Cl)nn3)CC2)c1 [Example 85, N-(3-((5-(4-(aminomethyl)-4-methylpiperidin-1-yl)pyrazin-2-yl)thio)-2-chlorophenyl)-6-(4-(2-(2-(((2S,4R)-1-((S)-2-(1-fluorocyclopropane-1-carboxamido)-3,3-dimethylbutanoyl)-4-hydroxypyrrolidine-2-carboxamido)methyl)-5-(4-methylthiazol-5-yl)phenoxy)ethyl)piperazin-1-yl)pyridazine-3-carboxamide]"
−29.2%,23.8%,–,"Cc1ncsc1-c1ccc(CNC(=O)[C@@H]2C[C@@H](O)CN2C(=O)[C@@H](NC(=O)C2(F)CC2)C(C)(C)C)c(OCCN2CCN(c3nccc(C(=O)Nc4cccc(Sc5cnc(N6CCC(C)(CN)CC6)cn5)c4Cl)n3)CC2)c1 [Example 86, N-(3-((5-(4-(aminomethyl)-4-methylpiperidin-1-yl)pyrazin-2-yl)thio)-2-chlorophenyl)-2-(4-(2-(2-(((2S,4R)-1-((S)-2-(1-fluorocyclopropane-1-carboxamido)-3,3-dimethylbutanoyl)-4-hydroxypyrrolidine-2-carboxamido)methyl)-5-(4-methylthiazol-5-yl)phenoxy)ethyl)piperazin-1-yl)pyrimidine-4-carboxamide]"
9.1%,45.5%,–,"Cc1ncsc1-c1ccc(CNC(=O)[C@@H]2C[C@@H](O)CN2C(=O)[C@@H](NC(=O)C2(F)CC2)C(C)(C)C)c(OC2CC3(CCN(c4cnc(C(=O)Nc5cccc(Sc6cnc(N7CCC(C)(CN)CC7)cn6)c5Cl)nc4)CC3)C2)c1 [Example 87, N-(3-((5-(4-(aminomethyl)-4-methylpiperidin-1-yl)pyrazin-2-yl)thio)-2-chlorophenyl)-5-(2-(2-(((2S,4R)-1-((S)-2-(1-fluorocyclopropane-1-carboxamido)-3,3-dimethylbutanoyl)-4-hydroxypyrrolidine-2-carboxamido)methyl)-5-(4-methylthiazol-5-yl)phenoxy)-7-azaspiro[3.5]nonan-7-yl)pyrimidine-2-carboxamide]"
16.5%,66.1%,–,"Cc1ncsc1-c1ccc(CNC(=O)[C@@H]2C[C@@H](O)CN2C(=O)[C@@H](NC(=O)C2(F)CC2)C(C)(C)C)c(OC2CC3(CCN(c4ccc(C(=O)Nc5cccc(Sc6cnc(N7CCC(C)(CN)CC7)cn6)c5Cl)nn4)CC3)C2)c1 [Example 88, N-(3-((5-(4-(aminomethyl)-4-methylpiperidin-1-yl)pyrazin-2-yl)thio)-2-chlorophenyl)-6-(2-(2-(((2S,4R)-1-((S)-2-(1-fluorocyclopropane-1-carboxamido)-3,3-dimethylbutanoyl)-4-hydroxypyrrolidine-2-carboxamido)methyl)-5-(4-methylthiazol-5-yl)phenoxy)-7-azaspiro[3.5]nonan-7-yl)pyridazine-3-carboxamide]"
4%,95%,97%,"Cc1ncsc1-c1ccc(CNC(=O)[C@@H]2C[C@@H](O)CN2C(=O)[C@@H](NC(=O)C2(F)CC2)C(C)(C)C)c(OCCNC(=O)c2cnc(N3CCC(CCCC(=O)Nc4cccc(Sc5cnc(N6CCC(C)(CN)CC6)cn5)c4Cl)CC3)nc2)c1 [Example 89, 2-(4-(4-((3-((5-(4-(aminomethyl)-4-methylpiperidin-1-yl)pyrazin-2-yl)thio)-2-chlorophenyl)amino)-4-oxobutyl)piperidin-1-yl)-N-(2-(2-(((2S,4R)-1-((S)-2-(1-fluorocyclopropane-1-carboxamido)-3,3-dimethylbutanoyl)-4-hydroxypyrrolidine-2-carboxamido)methyl)-5-(4-methylthiazol-5-yl)phenoxy)ethyl)pyrimidine-5-carboxamide]"
6%,97%,98%,"Cc1ncsc1-c1ccc(CNC(=O)[C@@H]2C[C@@H](O)CN2C(=O)[C@@H](NC(=O)C2(F)CC2)C(C)(C)C)c(OCCOc2cnc(N3CCC(CCCC(=O)Nc4cccc(Sc5cnc(N6CCC(C)(CN)CC6)cn5)c4Cl)CC3)nc2)c1 [Example 90, (2S,4R)—N-(2-(2-((2-(4-(4-((3-((5-(4-(aminomethyl)-4-methylpiperidin-1-yl)pyrazin-2-yl)thio)-2-chlorophenyl)amino)-4-oxobutyl)piperidin-1-yl)pyrimidin-5-yl)oxy)ethoxy)-4-(4-methylthiazol-5-yl)benzyl)-1-((S)-2-(1-fluorocyclopropane-1-carboxamido)-3,3-dimethylbutanoyl)-4-hydroxypyrrolidine-2-carboxamide]"
